In patent US6355799B1, “Substituted benzene compounds, process for their preparation, and herbicidal and defoliant compositions containing them” (ISK Americas Incorporated, priority 1997, dated 2002):

Legend:
Format in all cases: in vivo
[1] = system: redroot pigweed (Amaranthus retroflexus, AMARE); experiment: Pre-emerge test, greenhouse herbicide activity screening; conditions: for Pre-emerge Herbicidal Activity AMARE: phytotoxicity rating 0-100, 14 days after application; for Pre-emerge Herbicidal Activity, phytotoxicity rating (0-100), AMARE: rated 14 days after application, 0 = no damage, 100 = complete death
How it was run: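 Rating: 0–100 visual injury, 14 DAA. Application: acetone, 187 l/ha, 15–1000 g ai/ha, flat-fan track sprayer with nozzle 40–45 cm above soil or canopy. Post-emerge runs used 0.25% v/v surfactant on 2–3 leaf plants.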

[2] = system: barnyardgrass (Echinochloa crus-galli, ECHCG); experiment: as above; conditions: for Pre-emerge Herbicidal Activity ECHCG: phytotoxicity rating 0-100, 14 days after application; for Pre-emerge Herbicidal Activity, phytotoxicity rating (0-100), ECHCG: rated 14 days after application, 0 = no damage, 100 = complete death
How it was run: (§1)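 Compounds in acetone were track-sprayed at 15-1000 g ai/ha (187 l/ha) on sandy loam pots: pre-emerge one day after seeding, post-emerge at 2-3 leaf stage with 0.25% v/v non-ionic surfactant. Phytotoxicity was rated 14 days later on a 0 (no damage) to 100 (complete death) scale.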

[3] = system: green foxtail (Setaria viridis, SETVI); experiment: as above; conditions: for Pre-emerge Herbicidal Activity SETVI: phytotoxicity rating 0-100, 14 days after application; for Pre-emerge Herbicidal Activity, phytotoxicity rating (0-100), SETVI: rated 14 days after application, 0 = no damage, 100 = complete death
How it was run: as §1

[4] = system: ivyleaf morningglory (Ipomoea hederacea, IPOHE); experiment: as above; conditions: for Pre-emerge Herbicidal Activity IPOHE: phytotoxicity rating 0-100, 14 days after application; for Pre-emerge Herbicidal Activity, phytotoxicity rating (0-100), IPOHE: rated 14 days after application, 0 = no damage, 100 = complete death
How it was run: as §1

[5] = system: johnsongrass (Sorghum halepense, SORHA); experiment: as above; conditions: for Pre-emerge Herbicidal Activity SORHA: phytotoxicity rating 0-100, 14 days after application; for Pre-emerge Herbicidal Activity, phytotoxicity rating (0-100), SORHA: rated 14 days after application, 0 = no damage, 100 = complete death
How it was run: as §1

[6] = system: lambsquarters (Chenopodium album, CHEAL); experiment: as above; conditions: for Pre-emerge Herbicidal Activity CHEAL: phytotoxicity rating 0-100, 14 days after application; for Pre-emerge Herbicidal Activity, phytotoxicity rating (0-100), CHEAL: rated 14 days after application, 0 = no damage, 100 = complete death
How it was run: as §1

[7] = system: large crabgrass (Digitaria sanguinalis, DIGSA); experiment: as above; conditions: for Pre-emerge Herbicidal Activity DIGSA: phytotoxicity rating 0-100, 14 days after application; for Pre-emerge Herbicidal Activity, phytotoxicity rating (0-100), DIGSA: rated 14 days after application, 0 = no damage, 100 = complete death
How it was run: as §1

[8] = system: sicklepod (Cassia obtusifolia, CASOB); experiment: as above; conditions: for Pre-emerge Herbicidal Activity CASOB: phytotoxicity rating 0-100, 14 days after application; for Pre-emerge Herbicidal Activity, phytotoxicity rating (0-100), CASOB: rated 14 days after application, 0 = no damage, 100 = complete death
How it was run: as §1

[9] = system: velvetleaf (Abutilon theophrasti, ABUTH); experiment: as above; conditions: for Pre-emerge Herbicidal Activity ABUTH: phytotoxicity rating 0-100, 14 days after application; for Pre-emerge Herbicidal Activity, phytotoxicity rating (0-100), ABUTH: rated 14 days after application, 0 = no damage, 100 = complete death
How it was run: as §1

[10] = system: field corn (Zea mays L., var. Dekalb 535, CORN); experiment: Pre-emerge test, crop safety; conditions: crop damage rating 0-100, 14 days after application
How it was run: (§2)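 Visual ratings on a 0-100 scale (0 no damage, 100 all plants dead) were taken at 14 days after treatment. Rates of 15-1000 g ai/ha in acetone, 187 l/ha, were sprayed onto soil one day after planting (pre-emerge) or onto 2-3 leaf plants with 0.25% v/v surfactant (post-emerge).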

[11] = system: upland rice (Oryza sp., var. Tebonnet, RICE); experiment: Pre-emerge test, crop safety; conditions: crop damage rating 0-100, 14 days after application
How it was run: as §2

[12] = system: barnyardgrass (Echinochloa crus-galli, ECHCG); experiment: Post-emerge test, greenhouse herbicide activity screening; conditions: post-emerge, 14 days after application, rating scale 0-100
How it was run: as §2

[13] = system: green foxtail (Setaria viridis, SETVI); experiment: as above; conditions: post-emerge, 14 days after application, rating scale 0-100
How it was run: as §2

[14] = system: ivyleaf morningglory (Ipomoea hederacea, IPOHE); experiment: as above; conditions: post-emerge, 14 days after application, rating scale 0-100
How it was run: as §2

[15] = system: johnsongrass (Sorghum halepense, SORHA); experiment: as above; conditions: post-emerge, 14 days after application, rating scale 0-100
How it was run: as §2

[16] = system: large crabgrass (Digitaria sanguinalis, DIGSA); experiment: as above; conditions: post-emerge, 14 days after application, rating scale 0-100
How it was run: as §2

[17] = system: redroot pigweed (Amaranthus retroflexus, AMARE); experiment: as above; conditions: post-emerge, 14 days after application
How it was run: as §2

[18] = system: sicklepod (Cassia obtusifolia, CASOB); experiment: as above; conditions: post-emerge, 14 days after application, rating scale 0-100
How it was run: as §2

[19] = system: velvetleaf (Abutilon theophrasti, ABUTH); experiment: as above; conditions: post-emerge, 14 days after application, rating scale 0-100
How it was run: as §2

[20] = system: field corn (Zea mays L., var. Dekalb 535, CORN); experiment: Post-emerge test, crop safety; conditions: post-emerge, 14 days after application, rating scale 0-100
How it was run: as §1

[21] = system: upland rice (Oryza sp., var. Tebonnet, RICE); experiment: Post-emerge test, crop safety; conditions: post-emerge, 14 days after application, rating scale 0-100
How it was run: as §1

[22] = system: lambsquarters (Chenopodium album, CHEAL); experiment: Post-emerge test, greenhouse herbicide activity screening; conditions: post-emerge, 14 days after application, rating scale 0-100
How it was run: as §2

[23] = 250 g ai/ha, rating scale 0-100

CCOC(=O)C(C)Oc1c(Cl)cc(F)c(-n2c(=O)cc(C(F)(F)F)n(C)c2=O)c1NC(=O)c1ccc2ccccc2c1 (stereo not drawn) [2-191]
Pre-emerge Herbicidal Activity AMARE ([1]; 63 g ai/ha): 100
Pre-emerge Herbicidal Activity AMARE ([1]; 250 g ai/ha): 100
Pre-emerge Herbicidal Activity ECHCG ([2]; 63 g ai/ha): 0
Pre-emerge Herbicidal Activity ECHCG ([2]; 250 g ai/ha): 10
Pre-emerge Herbicidal Activity SETVI ([3]; 63 g ai/ha): 40
Pre-emerge Herbicidal Activity SETVI ([3]; 250 g ai/ha): 80
Pre-emerge Herbicidal Activity IPOHE ([4]; 63 g ai/ha): 10
Pre-emerge Herbicidal Activity IPOHE ([4]; 250 g ai/ha): 40
Pre-emerge Herbicidal Activity SORHA ([5]; 63 g ai/ha): 0
Pre-emerge Herbicidal Activity SORHA ([5]; 250 g ai/ha): 50
Pre-emerge Herbicidal Activity CHEAL ([6]; 63 g ai/ha): 100
Pre-emerge Herbicidal Activity CHEAL ([6]; 250 g ai/ha): 100
Pre-emerge Herbicidal Activity DIGSA ([7]; 63 g ai/ha): 0
Pre-emerge Herbicidal Activity DIGSA ([7]; 250 g ai/ha): 70
Pre-emerge Herbicidal Activity CASOB ([8]; 63 g ai/ha): 10
Pre-emerge Herbicidal Activity CASOB ([8]; 250 g ai/ha): 30
Pre-emerge Herbicidal Activity ABUTH ([9]; 63 g ai/ha): 80
Pre-emerge Herbicidal Activity ABUTH ([9]; 250 g ai/ha): 100
Pre-emerge Herbicidal Activity CORN ([10]; 63 g ai/ha): 0
Pre-emerge Herbicidal Activity CORN ([10]; 250 g ai/ha): 0
Pre-emerge Herbicidal Activity RICE ([11]; 63 g ai/ha): 10
Pre-emerge Herbicidal Activity RICE ([11]; 250 g ai/ha): 20
phytotoxicity rating ECHCG ([12]; 63 g ai/ha): 0
phytotoxicity rating ECHCG ([12]; 250 g ai/ha): 0
phytotoxicity rating SETVI ([13]; 63 g ai/ha): 0
phytotoxicity rating SETVI ([13]; 250 g ai/ha): 10
phytotoxicity rating IPOHE ([14]; 63 g ai/ha): 80
phytotoxicity rating IPOHE ([14]; 250 g ai/ha): 100
phytotoxicity rating SORHA ([15]; 63 g ai/ha): 0
phytotoxicity rating SORHA ([15]; 250 g ai/ha): 0
phytotoxicity rating DIGSA ([16]; 63 g ai/ha): 0
phytotoxicity rating DIGSA ([16]; 250 g ai/ha): 0
phytotoxicity rating AMARE ([17]; 63 g ai/ha, rating scale 0-100 (0 no damage, 100 complete death)): 40
phytotoxicity rating AMARE [17, 23]: 90
phytotoxicity rating CASOB ([18]; 63 g ai/ha): 30
phytotoxicity rating CASOB ([18]; 250 g ai/ha): 80
phytotoxicity rating ABUTH ([19]; 63 g ai/ha): 70
phytotoxicity rating ABUTH ([19]; 250 g ai/ha): 90
phytotoxicity rating CORN (crop damage) ([20]; 63 g ai/ha): 10
phytotoxicity rating CORN (crop damage) ([20]; 250 g ai/ha): 20
phytotoxicity rating RICE (crop damage) ([21]; 63 g ai/ha): 10
phytotoxicity rating RICE (crop damage) ([21]; 250 g ai/ha): 20

Cn1c(C(F)(F)F)cc(=O)n(-c2c(F)cc(Cl)c(OC(F)F)c2NC(=O)c2ccc3ccccc3c2)c1=O [Compound 2-115, 3-[4-chloro-3-difluoromethoxy-6-fluoro-2-(2-naphthoylamino)phenyl]-1-methyl-6-trifluoromethyl-2,4(1H, 3H)-pyrimidinedione]
Pre-emerge Herbicidal Activity, phytotoxicity rating (0-100), AMARE ([1]; 63 g ai/ha): 100
Pre-emerge Herbicidal Activity, phytotoxicity rating (0-100), AMARE ([1]; 125 g ai/ha): 100
Pre-emerge Herbicidal Activity, phytotoxicity rating (0-100), ECHCG ([2]; 63 g ai/ha): 80
Pre-emerge Herbicidal Activity, phytotoxicity rating (0-100), ECHCG ([2]; 125 g ai/ha): 95
Pre-emerge Herbicidal Activity, phytotoxicity rating (0-100), SETVI ([3]; 63 g ai/ha): 90
Pre-emerge Herbicidal Activity, phytotoxicity rating (0-100), SETVI ([3]; 125 g ai/ha): 99
Pre-emerge Herbicidal Activity, phytotoxicity rating (0-100), IPOHE ([4]; 63 g ai/ha): 0
Pre-emerge Herbicidal Activity, phytotoxicity rating (0-100), IPOHE ([4]; 125 g ai/ha): 90
Pre-emerge Herbicidal Activity, phytotoxicity rating (0-100), SORHA ([5]; 63 g ai/ha): 20
Pre-emerge Herbicidal Activity, phytotoxicity rating (0-100), SORHA ([5]; 125 g ai/ha): 30
Pre-emerge Herbicidal Activity, phytotoxicity rating (0-100), CHEAL ([6]; 63 g ai/ha): 100
Pre-emerge Herbicidal Activity, phytotoxicity rating (0-100), CHEAL ([6]; 125 g ai/ha): 100
Pre-emerge Herbicidal Activity, phytotoxicity rating (0-100), DIGSA ([7]; 63 g ai/ha): 90
Pre-emerge Herbicidal Activity, phytotoxicity rating (0-100), DIGSA ([7]; 125 g ai/ha): 100
Pre-emerge Herbicidal Activity, phytotoxicity rating (0-100), CASOB ([8]; 63 g ai/ha): 20
Pre-emerge Herbicidal Activity, phytotoxicity rating (0-100), CASOB ([8]; 125 g ai/ha): 80
Pre-emerge Herbicidal Activity, phytotoxicity rating (0-100), ABUTH ([9]; 63 g ai/ha): 100
Pre-emerge Herbicidal Activity, phytotoxicity rating (0-100), ABUTH ([9]; 125 g ai/ha): 100
phytotoxicity rating ECHCG ([12]; 63 g ai/ha): 10
phytotoxicity rating ECHCG ([12]; 250 g ai/ha): 20
phytotoxicity rating SETVI ([13]; 63 g ai/ha): 0
phytotoxicity rating SETVI ([13]; 250 g ai/ha): 0
phytotoxicity rating IPOHE ([14]; 63 g ai/ha): 90
phytotoxicity rating IPOHE ([14]; 250 g ai/ha): 95
phytotoxicity rating SORHA ([15]; 63 g ai/ha): 0
phytotoxicity rating SORHA ([15]; 250 g ai/ha): 0
phytotoxicity rating CHEAL ([22]; 63 g ai/ha): 100
phytotoxicity rating CHEAL ([22]; 250 g ai/ha): 100
phytotoxicity rating DIGSA ([16]; 63 g ai/ha): 20
phytotoxicity rating DIGSA ([16]; 250 g ai/ha): 50
phytotoxicity rating AMARE ([17]; 63 g ai/ha, rating scale 0-100): 100
phytotoxicity rating AMARE [17, 23]: 100
phytotoxicity rating CASOB ([18]; 63 g ai/ha): 90
phytotoxicity rating CASOB ([18]; 250 g ai/ha): 95
phytotoxicity rating ABUTH ([19]; 63 g ai/ha): 100
phytotoxicity rating ABUTH ([19]; 250 g ai/ha): 100
